We go through one compound from BindingDB's records for doi:10.1021/jm00020a011 (Zeneca Pharmaceuticals, 1995).

What is called Ki is a measure of affinity in units of concentration, obtained from inhibition or displacement.

SMILES strings stand for the structures. A value given as a limit tells only on which side of the number the result lay.

This experiment is described as follows: Binding affinity towards Acetylcholinesterase.

The compound `CC(C)[C@H](NC(=O)[C@@H]1CCCN1C(=O)[C@@H](NC(=O)c1ccc(C(=O)NS(=O)(=O)c2ccc(Cl)cc2)cc1)C(C)C)C(=O)c1nc2cc(C(N)=O)ccc2o1` [2-{(S)-2-[((S)-1-{(S)-2-[4-(4-Chloro-benzenesulfonylaminocarbonyl)-benzoylamino]-3-methyl-butyryl}-pyrrolidine-2-carbonyl)-amino]-3-methyl-butyryl}-benzooxazole-5-carboxylic acid amide] had a Ki of over 2000 µM.
